Test results: patent US5486595A, “Tumor necrosis factor inhibitors” (Centecor, Inc., priority 1994, dated 1996)
Where a SMILES comes first, the peptide text is derived from it.

Biological target: T1, human TNFα (Homo sapiens, UniProt P01375)
T1 construct: purchased Biosource, Camarillo, Calif
Experiment: p55 Receptor/IgG Fusion Protein Binding Assay (inhibition of TNFα capture by p55-Ig coated plate)
Details: peptide 1 mM; TNFα 25 ng/ml; read-out: inhibition of binding of TNFα to p55TNFr-IgG chimeric construct
Description: This assay was designed to identify peptides which bind to human TNFα and thereby prevent the capture of the TNFα by a microtiter plate coated with p55-Ig fusion protein. A constant concentration of human TNFα is preincubated with the test peptide and then incubated on the p55-Ig coated microtiter wells. Bound TNFα is detected using a specific antisera and an alkaline phosphatase-conjugated probe.
A 96-well, U-bottom polyvinylchloride microtiter plate was coated with 50 μl/well of p55-Ig fusion protein at 5 μg/ml in 0.01M sodium phosphate, 0.15M sodium chloride (PBS) by incubation overnight at 4° C. or 2 hours at 37° C. The fusion protein, which consists of a p55 TNF receptor protein portion and an IgG portion, can be produced as disclosed in U.S. application Ser. No. 08/010,406 filed Jan. 29, 1993 which is incorporated herein by reference. The plate was washed three times with 0.05% Tween-20 in PBS, then blocked, by adding 150 μl/well of assay buffer (10 mM N-2-hydroxyethylpiperazine-N'-[…] (HEPES) pH 7.2, containing 0.1% porcine gelatin, 0.1% Tween-80, and 0.01% sodium azide) and continuing incubation for 1 hour at 37° C. or at 4° C. for 1-7 days.
Lyophilized peptides to be tested were weighed in tared 12×75 mm polystyrene tubes and reconstituted to a concentration of 1.2 mM with assay buffer. Each suspension was sonicated in a water bath for 1-5 minutes and vortexed 15-30 seconds to disperse large particles. Serial dilutions of each peptide suspension were prepared using assay buffer in a 96-well polystyrene microtiter plate. Additional wells received Fab fragment of the mouse/human monoclonal anti-human TNFα antibody cA2 (positive control) or assay buffer (negative control). […] The polystyrene dilution plate was then sealed and incubated 1 hour at room temperature on an orbital mixer set at moderate speed.
Following the sample preincubation, blocker was discarded from the p55-Ig coated plate and blotted dry. Aliquots (50 μl) of each peptide or control were transferred into duplicate wells on the p55-Ig coated plate which was then sealed and incubated i hour at 37° C. Duplicate wells containing only assay buffer were included as a plate blank. After incubation the p55-Ig plate was washed three times with 0.05% Tween-20 in PBS.
To detect TNFα captured by the p55-Ig plate, all wells were incubated in succession with polyclonal rabbit anti-human TNFα (Genzyme, Boston, Mass.; 1:500 in assay buffer, 50 μl/well), biotinylated goat anti-rabbit Ig (H&L) (Vector Laboratories, Burlingame, Calif.; 1 μg/ml in assay buffer, 50 μl/well) and streptavidin-alkaline phosphatase conjugate (Pierce, Rockford, Ill.; 1 μg/ml in assay buffer, 50 μl/well). All incubations were for 1 hour at 37° C. and after each incubation the plate was washed three times with 0.05% Tween-20 in PBS. Fifty microliters of alkaline phosphatase substrate solution (alkaline buffer (Sigma, St. Louis, Mo.) diluted 1:500 in deionized water plus one 5 mg tablet of p-nitrophenyl phosphate (Sigma, St. Louis, Mo.) per 5 ml of diluted buffer) was added to all wells and incubation continued for 20 minutes at room temperature. Color development was stopped by adding to all wells 50 μl of 3N sodium hydroxide. The optical density (OD) at 405 nm was measured on a microtiter plate reader (Molecular Devices Vmax plate reader), with the plate blank wells subtracted as background. The activity of each peptide was then expressed as the percent inhibition of TNFα capture by the p55-Ig plate, relative to the amount of TNFα captured in wells containing only assay buffer (negative control), as follows: % inhibition=100-((mean OD peptide/mean OD negative control)×100).
The inhibition of binding of TNFα to p55TNFr-IgG chimeric construct was performed as described above using several embodiments of the invention. The peptides were tested at a concentration of 1 mM.

T1 sequence (P01375 77-233 limits assumed): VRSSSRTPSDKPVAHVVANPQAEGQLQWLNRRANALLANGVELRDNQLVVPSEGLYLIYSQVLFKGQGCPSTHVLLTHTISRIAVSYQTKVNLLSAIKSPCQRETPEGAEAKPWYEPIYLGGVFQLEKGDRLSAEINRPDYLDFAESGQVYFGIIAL

inhibition at 1000 µM [%]	SMILES
40	CC(=O)N[C@@H](CC(C)C)C(=O)N[C@@H](Cc1ccccc1)C(=O)N[C@@H](CCC(N)=O)C(=O)N[C@@H](C)C(=O)N[C@@H](Cc1ccccc1)C(=O)N[C@@H](CC(N)=O)C(=O)N[C@@H](C)C(=O)N[C@@H](CO)C(=O)N[C@@H](CC(C)C)C(=O)N[C@@H](C)C(=O)N[C@@H](CC(C)C)C(=O)N[C@@H](CC(N)=O)C(=O)NCC(=O)N[C@H](C(=O)N[C@H](C(N)=O)C(C)C)[C@@H](C)O [SEQ ID NO:12, Acetyl-leucyl-phenylalanyl-glutaminyl-alanyl-phenylalanyl-asparaginyl-alanyl-seryl-leucyl-alanyl-leucyl-asparaginyl-glycyl-threonyl-valine Amide] (Ac-LFQAFNASLALNGTV-NH2)
34	CC(=O)N[C@@H](C)C(=O)N[C@@H](Cc1ccccc1)C(=O)N[C@@H](CC(N)=O)C(=O)N[C@@H](C)C(=O)N[C@@H](CO)C(=O)N[C@@H](CC(C)C)C(=O)N[C@@H](C)C(=O)N[C@@H](CC(C)C)C(=O)N[C@@H](CC(N)=O)C(=O)NCC(=O)N[C@H](C(=O)N[C@H](C(=O)N[C@@H](Cc1c[nH]cn1)C(=O)N[C@@H](CC(C)C)C(=O)N[C@@H](CO)C(N)=O)C(C)C)[C@@H](C)O [SEQ ID NO:13, Acetyl-alanyl-phenylalanyl-asparaginyl-alanyl-seryl-leucyl-alanyl-leucyl-asparaginyl-glycyl-threonyl-valyl-histidyl-leucyl-serine Amide] (Ac-AFNASLALNGTVHLS-NH2)
29	CC(C)C[C@H](NC(=O)[C@H](C)NC(=O)[C@H](CC(C)C)NC(=O)[C@H](CO)NC(=O)[C@H](C)NC(=O)[C@H](CC(N)=O)NC(=O)[C@H](Cc1ccccc1)NC(=O)[C@H](C)N)C(=O)N[C@@H](CC(N)=O)C(=O)NCC(=O)N[C@H](C(=O)N[C@H](C(=O)N[C@@H](Cc1c[nH]cn1)C(=O)N[C@@H](CC(C)C)C(=O)N[C@@H](CO)C(N)=O)C(C)C)[C@@H](C)O [SEQ ID NO:14] (H-AFNASLALNGTVHLS-NH2)
48	CC(C)C[C@H](NC(=O)[C@H](Cc1ccccc1)NC(=O)[C@H](Cc1ccccc1)NC(=O)CNC(=O)[C@H](C)NC(=O)[C@H](Cc1c[nH]cn1)NC(=O)[C@H](C)NC(=O)[C@@H](NC(=O)[C@H](C)NC(=O)[C@@H](NC(=O)[C@@H](NC(=O)[C@H](CC(N)=O)NC(=O)[C@H](CCC(N)=O)NC(=O)[C@H](CCCCN)NC(=O)[C@H](CCC(=O)O)NC(=O)[C@@H](N)CCC(N)=O)[C@@H](C)O)C(C)C)[C@@H](C)O)C(=O)N[C@@H](CCCNC(=N)N)C(=O)N[C@@H](CCC(=O)O)C(=O)N[C@@H](CC(N)=O)C(=O)N[C@@H](CCC(=O)O)C(N)=O [SEQ ID NO:15, Glutaminyl-glutamyl-lysyl-glutaminyl-asparaginyl-threonyl-valyl-alanyl-threonyl-alanyl-histidyl-alanyl-glycyl-phenylalanyl-phenylalanyl-leucyl-arginyl-glutamyl-asparaginyl-glutamic Acid Amide] (H-QEKQNTVATAHAGFFLRENE-NH2)
48	CC(C)C[C@H](NC(=O)[C@H](Cc1ccccc1)NC(=O)[C@H](Cc1ccccc1)NC(=O)CNC(=O)[C@H](C)NC(=O)[C@H](Cc1c[nH]cn1)NC(=O)[C@H](C)NC(=O)[C@@H](NC(=O)[C@H](C)NC(=O)[C@@H](NC(=O)[C@@H](NC(=O)[C@H](CC(N)=O)NC(=O)[C@H](CCC(N)=O)NC(=O)[C@@H](N)CCCCN)[C@@H](C)O)C(C)C)[C@@H](C)O)C(=O)N[C@@H](CCCNC(=N)N)C(N)=O [SEQ ID NO:16, Lysyl-glutaminyl-asparaginyl-threonyl-valyl-alanyl-threonyl-alanyl-histidyl-alanyl-glycyl-phenylalanyl-phenylalanyl-leucyl-arginine Amide] (H-KQNTVATAHAGFFLR-NH2)
59	CC(C)C[C@H](NC(=O)[C@H](Cc1ccccc1)NC(=O)[C@H](Cc1ccccc1)NC(=O)CNC(=O)[C@H](C)NC(=O)[C@H](Cc1c[nH]cn1)NC(=O)[C@H](C)NC(=O)[C@@H](NC(=O)[C@H](C)NC(=O)[C@@H](NC(=O)[C@@H](N)[C@@H](C)O)C(C)C)[C@@H](C)O)C(=O)N[C@@H](CCCNC(=N)N)C(=O)N[C@@H](CCC(=O)O)C(=O)N[C@@H](CC(N)=O)C(=O)N[C@@H](CCC(=O)O)C(N)=O [SEQ ID NO:17] (H-TVATAHAGFFLRENE-NH2)
68	CC(C)C[C@H](NC(=O)[C@H](Cc1ccccc1)NC(=O)[C@H](Cc1ccccc1)NC(=O)CNC(=O)[C@H](C)NC(=O)[C@H](Cc1c[nH]cn1)NC(=O)[C@H](C)NC(=O)[C@@H](N)[C@@H](C)O)C(=O)N[C@@H](CCCNC(=N)N)C(=O)N[C@@H](CCC(=O)O)C(=O)N[C@@H](CC(N)=O)C(=O)N[C@@H](CCC(=O)O)C(=O)N[C@@H](C)C(=O)N[C@H](C(=O)N[C@@H](CO)C(N)=O)C(C)C [SEQ ID NO:18] (H-TAHAGFFLRENEAVS-NH2)
53	CC(C)C[C@H](NC(=O)[C@H](Cc1ccccc1)NC(=O)[C@H](Cc1ccccc1)NC(=O)CNC(=O)[C@H](C)N)C(=O)N[C@@H](CCCNC(=N)N)C(=O)N[C@@H](CCC(=O)O)C(=O)N[C@@H](CC(N)=O)C(=O)N[C@@H](CCC(=O)O)C(=O)N[C@@H](C)C(=O)N[C@H](C(=O)N[C@@H](CO)C(=O)N[C@@H](C)C(=O)N[C@@H](CO)C(=O)N[C@@H](CC(N)=O)C(N)=O)C(C)C [SEQ ID NO:19] (H-AGFFLRENEAVSASN-NH2)
26	CC(C)C[C@H](NC(=O)[C@H](CCCCN)NC(=O)[C@@H](NC(=O)[C@H](CS)NC(=O)[C@H](CCC(=O)O)NC(=O)[C@H](CC(C)C)NC(=O)[C@H](CO)NC(=O)[C@H](CCCCN)NC(=O)[C@H](CCCCN)NC(=O)[C@H](CS)NC(=O)[C@H](CC(N)=O)NC(=O)[C@H](CO)NC(=O)[C@H](CS)NC(=O)[C@H](CO)NC(=O)[C@@H](NC(=O)[C@H](CS)NC(=O)[C@H](CCC(=O)O)NC(=O)[C@H](CC(N)=O)NC(=O)[C@H](CCC(=O)O)NC(=O)[C@@H](N)CCCNC(=N)N)C(C)C)[C@@H](C)O)C(=O)O [SEQ ID NO:20, Arginyl-glutamyl-asparaginyl-glutamyl-cysteinyl-valyl-seryl-cysteinyl-seryl-asparaginyl-cysteinyl-lysyl-lysyl-seryl-leucyl-glutamyl-cysteinyl-threonyl-lysyl-leucine] (H-RENECVSCSNCKKSLECTKL-OH)
50	CC[C@H](C)[C@H](NC(=O)[C@H](CCC(N)=O)NC(=O)[C@@H]1CCCN1C(=O)[C@H](CC(C)C)NC(=O)[C@H](C)NC(=O)[C@H](CC(C)C)NC(=O)[C@H](CCCCN)NC(=O)[C@@H](NC(=O)[C@H](C)NC(=O)[C@H](CCC(=O)O)NC(=O)[C@H](CC(C)C)NC(=O)[C@@H](N)CO)[C@@H](C)O)C(=O)N[C@@H](CCC(=O)O)C(=O)N[C@@H](CC(N)=O)C(=O)N[C@H](C(N)=O)C(C)C [SEQ ID NO:21, Seryl-leucyl-glutamyl-alanyl-threonyl-lysyl-leucyl-alanyl-leucyl-prolyl-glutaminyl-isoleucyl-glutamyl-asparaginyl-valine Amide] (H-SLEATKLALPQIENV-NH2)
34	CC[C@H](C)[C@H](NC(=O)[C@H](CCC(N)=O)NC(=O)[C@@H]1CCCN1C(=O)[C@H](CC(C)C)NC(=O)[C@H](C)NC(=O)[C@@H](N)CC(C)C)C(=O)N[C@@H](CCC(=O)O)C(=O)N[C@@H](CC(N)=O)C(=O)N[C@H](C(=O)N[C@@H](CCCCN)C(=O)NCC(=O)N[C@H](C(=O)N[C@@H](CCC(=O)O)C(=O)N[C@@H](CC(=O)O)C(=O)N[C@@H](CO)C(N)=O)[C@@H](C)O)C(C)C [SEQ ID NO:22, Leucyl-alanyl-leucyl-prolyl-glutaminyl-isoleucyl-glutamyl-asparaginyl-valyl-lysyl-glycyl-threonyl-glutamyl-aspartyl-serine Amide] (H-LALPQIENVKGTEDS-NH2)
